According to publication PMC12326981, “Novel C5α-substituted carbapenems enhance Mycobacterium abscessus killing via selective target binding and reduced hydrolysis by BlaMab” (Antimicrobial Agents and Chemotherapy, 2025):
Several values for one entry are separate records, joined by “and”; a condition that tells them apart may be missing. Identical values can stand only once.

How the values were obtained:
[1] = Thermal stability in 7H9 broth at 30°C; conditions: for Degradation percentage / degradation after 24 h: 7H9 broth, 30°C; for Degradation percentage: 24 h; for degradation after 24 h: 50 mg/L and 10 mg/L (Fig. S2); for half-life: buffer
Protocol: The stability of the two compounds in 7H9 broth was assessed at 30°C at drug concentrations of 10, 50, and 100 mg/L, with each condition tested in triplicate. Absorbance at 240 nm was measured every 2 h over a 24 h period using a BioTek Synergy2 multimode reader, with data analyzed via Gen5 software to monitor degradation or changes in stability. To evaluate the impact of thermal instability, MIC tests were performed using Mab ATCC 19977. Compounds were tested at time points of 0 h (no incubation) and 6, 24, and 48 h of incubation at 30°C. Imipenem and meropenem, known to be thermally unstable β-lactams, were included as positive controls. The MIC results were recorded after 48 h of incubation. Detailed MIC testing protocols were identical to those described below.

[2] = system: Mab ATCC 19977; experiment: MIC testing with drugs pre-incubated in 7H9 broth (effect of drug instability); assay type: cell-based, Mycobacterium abscessus; conditions: for MIC: Mycobacteroides abscessus, ATCC19977; for MIC rise after 24 and 48 h incubation vs nonincubated: drug incubated 24 and 48 h
Protocol: MICs were determined in duplicate following Clinical Laboratory Standards Institute ([52]) guidelines using Middlebrook 7H9 broth supplemented with 10% (vol/vol) oleic acid-albumin-dextrose-catalase (OADC) and 0.05% (vol/vol) Tween 80, with an inoculum of 5 × 10⁵ CFU/mL. MIC testing of two C5α-substituted carbapenems was conducted both individually and in combination with cephalosporins (cefuroxime and ceftaroline), penicillins (amoxicillin), or BLIs (avibactam or durlobactam + sulbactam). Avibactam, durlobactam, cefuroxime, ceftaroline, and amoxicillin were fixed at concentrations of 4, 1, 2, 4, and 4 mg/L, respectively. Amoxicillin was combined with 4 mg/L avibactam, as it is highly susceptible to hydrolysis by BlaMab ([12], [15], [25]). The MIC was defined as the lowest antibiotic concentration that inhibited visible bacterial growth following 48 h of incubation at 30°C.

[3] = system: Mab strain ATCC 19977 and three clinical isolates (Mab122, Mab686, and UH01); experiment: Static concentration time-kill (SCTK) assay; assay type: cell-based, Mycobacterium abscessus
Protocol: SCTK studies were conducted over 5 days in Middlebrook 7H9 broth supplemented with 10% (vol/vol) OADC, 0.2% (vol/vol) glycerol, and 0.05% (vol/vol) Tween 80 in duplicate. The efficacy of JDB/NA-1-157 and JDB/NA-208 was evaluated using Mab strain ATCC 19977 and three clinical isolates (Mab122, Mab686, and UH01) at an initial inoculum of 10^5.5–10^6.3 CFU/mL. […] Bacterial killing was assessed across a wide range of concentrations for JDB/NA-1-157 and JDB/NA-1-208 individually (0.0625–64.0 mg/L).
For the combination study, the concentrations of JDB/NA-1-157 and JDB/NA-1-208 were selected based on MIC results and time-killing profiles of the single-drug study, while the concentrations of other β-lactams and BLIs were chosen based on clinically relevant levels, determined from the predicted average unbound steady-state concentrations (fCss,avg) in plasma at clinically relevant doses ([27]). The drug concentrations used were JDB/NA-1-157, 1 mg/L; JDB/NA-1-208, 8 mg/L; imipenem, 12 mg/L; ceftaroline, 8 mg/L; cefuroxime, 8 mg/L; amoxicillin, 2 mg/L; avibactam, 4 mg/L; durlobactam, 12 mg/L; amikacin, 12 mg/L; clarithromycin, 0.3 mg/L; and cefoxitin, 7 mg/L. The SOC regimen was included for comparison of efficacy. On day 3, the broth was replaced with fresh broth containing the corresponding drug concentrations. For viable cell counts, 100 µL of undiluted or appropriately diluted samples was subcultured on Middlebrook 7H10 agar plates supplemented with 1% (vol/vol) OADC, 0.2% glycerol, and 0.05% (vol/vol) Tween 80. All samples were washed twice with sterile 0.9% saline prior to serial dilution or plating.

[4] = molecular target: LDT3 (Mycobacteroides abscessus, UniProt B1MHQ4); experiment: Mass spectrometric analysis of acyl-enzyme adducts; assay type: binding, Mycobacterium abscessus; conditions: LDT3 (44,795); 1:10 molar ratio, 2 h; accuracy ±5 Da
Protocol: (§1) Truncated sequences of BlaMab (Δ1–30 blaMab), LDT1–5, DDC, PBP B, PonA2, and PBP-lipo (Δ1–41) were synthesized by Celtek Biosciences (Franklin, TN) and cloned into the pET28(a)+ vector. Purification of LDTs and PBPs was carried out as previously described ([15], [16], [20]). Briefly, clones were transformed into Escherichia coli BL21 (DE3), and protein expression was induced with 0.25 mM isopropyl β-d-1-thiogalactopyranoside. Cell pellets were resuspended in buffer containing 50 mM Tris (pH 8.0), 400 mM sodium chloride, and 1 mM Tris(2-carboxyethyl)phosphine hydrochloride and lysed by sonication. After centrifugation, the supernatant was purified using a His Prep FF column and eluted with 500 mM imidazole.
(§2) The purified proteins were incubated at room temperature with JDB/NA-1-157 and JDB/NA-1-208 at a molar ratio of 1:10 for 2 h. A quadrupole time-of-flight mass spectrometer (Waters Synapt-G2-Si) with electrospray ionization and a Waters Acquity H-Class UPLC system were used to analyze the samples. The liquid chromatography conditions were as follows: a BEH C18 column (1.7 µm, 2.1 × 50 mm) and a mobile phase consisting of 0.1% formic acid in water and 0.1% formic acid in acetonitrile, with a gradient elution from 10% to 90% acetonitrile over 11 min at a flow rate of 0.5 mL/min. The MS settings were optimized with a capillary voltage of 3 kV, a sampling cone voltage of 35 V, and source and desolvation temperatures of 100°C and 500°C, respectively. Gas flow rates were 100 L/h for the cone and 800 L/h for desolvation. The mass accuracy was maintained at ±5 Da.

[5] = molecular target: LDT4 (Mycobacteroides abscessus, UniProt B1MKW1); experiment: Mass spectrometric analysis of acyl-enzyme adducts; assay type: binding, Mycobacterium abscessus; conditions: LDT4 (32,567); 1:10 molar ratio, 2 h; accuracy ±5 Da
Protocol: as §1, §2

[6] = system: DDC; experiment: Mass spectrometric analysis of acyl-enzyme adducts; assay type: binding, Mycobacterium abscessus; set-up: key: (.) indicates no detectable binding; conditions: DDC (29,750); 1:10 molar ratio, 2 h; accuracy ±5 Da
Protocol: as §1, §2

[7] = molecular target: LDT5 (Mycobacteroides abscessus, UniProt B1MHQ4); experiment: Mass spectrometric analysis of acyl-enzyme adducts; assay type: binding, Mycobacterium abscessus; set-up: key: (.) indicates no detectable binding; conditions: LDT5 (28,220); 1:10 molar ratio, 2 h; accuracy ±5 Da
Protocol: as §1, §2

[8] = drug incubated 6 h in 7H9 broth at 30°C
[9] = drug incubated 24 h in 7H9 broth at 30°C
[10] = drug incubated 48 h in 7H9 broth at 30°C

Sequence of LDT5 (B1MHQ4 entry or part of it): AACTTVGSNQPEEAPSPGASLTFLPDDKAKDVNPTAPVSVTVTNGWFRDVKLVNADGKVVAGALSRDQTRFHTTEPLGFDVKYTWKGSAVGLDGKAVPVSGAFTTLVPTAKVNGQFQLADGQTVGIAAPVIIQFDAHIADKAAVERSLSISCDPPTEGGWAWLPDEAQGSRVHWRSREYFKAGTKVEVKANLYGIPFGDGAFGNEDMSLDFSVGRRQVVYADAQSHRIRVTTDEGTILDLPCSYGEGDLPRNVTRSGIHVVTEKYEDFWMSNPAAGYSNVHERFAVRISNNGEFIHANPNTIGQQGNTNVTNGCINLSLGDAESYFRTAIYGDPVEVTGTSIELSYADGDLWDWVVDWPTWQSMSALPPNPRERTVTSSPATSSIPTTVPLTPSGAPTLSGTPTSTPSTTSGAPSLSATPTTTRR
Sequence of LDT3 (B1MHQ4 entry or part of it): as above
Sequence of LDT4 (B1MKW1 entry or part of it): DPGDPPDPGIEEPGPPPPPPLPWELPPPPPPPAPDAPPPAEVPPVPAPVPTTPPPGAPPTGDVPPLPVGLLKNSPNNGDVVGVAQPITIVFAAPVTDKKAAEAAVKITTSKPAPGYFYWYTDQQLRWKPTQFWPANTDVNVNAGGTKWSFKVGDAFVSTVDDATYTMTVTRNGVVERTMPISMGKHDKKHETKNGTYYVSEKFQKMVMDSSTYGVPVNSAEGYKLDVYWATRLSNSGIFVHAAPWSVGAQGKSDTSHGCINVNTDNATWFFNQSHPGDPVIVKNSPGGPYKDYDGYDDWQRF

SMILES: C[C@@H](O)[C@H]1C(=O)N2C(C(=O)O)=C(S[C@@H]3CN[C@H](C(=O)N(C)C)C3)C[C@]12C [JDB/NA-1-157]
- Degradation percentage ([1]; 10 mg/L): 11.9%
- degradation after 24 h [1]: 16%
- Degradation percentage ([1]; 50 mg/L): 16.2%
- Degradation percentage ([1]; 100 mg/L): 16% and 16.6%
- half-life [1]: 50 h
- MIC [2, 8]: 0.25 µg/mL
- MIC [2, 9]: 2 µg/mL
- MIC [2, 10]: 2 µg/mL
- MIC ([2]; no incubation of drug): 0.25 µg/mL
- MIC rise after 24 and 48 h incubation vs nonincubated [2]: fourfold
- bacterial killing in combination ([3]; 1 mg/L with BLIs (avibactam or durlobactam) or β-lactams (cefuroxime, ceftaroline, or amoxicillin), by day 3, ATCC 19977, Mab122, Mab686): near-complete eradication
- bacterial killing on addition of avibactam ([3]; ATCC 19977, JDB/NA-1-157 1 mg/L + avibactam 4 mg/L): up to 2.5 log10 CFU/mL
- log10 CFU/mL reduction ([3]; single agent, 4 mg/L, over 5 days, ATCC 19977 and clinical isolates): 1.5–2.0 log10 CFU/mL
- bacterial killing at high concentration ([3]; single agent, 16–64 mg/L, 5 days): near-complete eradication
- Mass of protein after incubation (mass shift) [4]: 45,178 (+383) Da
- Mass of protein after incubation (mass shift) [5]: 32,950 (+383) Da
- Mass of protein after incubation (mass shift) [6]: 30,134 (+383) Da
- Mass of protein after incubation (mass shift) [7]: 28,219 (.)

SMILES: CC[C@]12CC(S[C@@H]3CN[C@H](C(=O)N(C)C)C3)=C(C(=O)O)N1C(=O)[C@@H]2[C@@H](C)O [JDB/NA-1-208]
- Degradation percentage ([1]; 10 mg/L): 0.6%
- degradation after 24 h [1]: approximately 10%
- Degradation percentage ([1]; 50 mg/L): 10.5%
- half-life [1]: 66 h
- MIC [2, 8]: 16 µg/mL
- MIC [2, 9]: 32 µg/mL
- MIC [2, 10]: 32 µg/mL
- MIC ([2]; no incubation of drug): 16 µg/mL
- MIC rise after 24 and 48 h incubation vs nonincubated [2]: twofold
- effect of combining with avibactam on killing ([3]; 8 mg/L + avibactam 4 mg/L): no significant effect
- bacterial killing in combination ([3]; 8 mg/L with ceftaroline, cefuroxime, amoxicillin (with avibactam), or durlobactam): near-complete eradication
- log10 CFU killing ([3]; single agent, 64 mg/L): ~ 3 log10 CFU
- Mass of protein after incubation (mass shift) [4]: 45,194 (+397) Da
- Mass of protein after incubation (mass shift) [5]: 32,964 (+397) Da
- Mass of protein after incubation (mass shift) [6]: 29,750 (.)
- Mass of protein after incubation (mass shift) [7]: 28,617 (+397) Da
